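Grown in 96-well plates, cells were treated for 48 hours with each compound at five concentrations. Insufficient inhibition: endpoint recorded as highest concentration tested. TGI marks complete inhibition of growth.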
Legend:
Experiment in all cases: inhibition of tumour cell growth, NCI panel, 48 h
786-0 renal = test system: 786-0 renal
A498 renal = test system: A498 renal
A549 NSCLC = test system: A549 NSCLC
ACHN renal = test system: ACHN renal
BT-549 breast = test system: BT-549 breast
CAKI-1 renal = test system: CAKI-1 renal
CCRF-CEM leukemia = test system: CCRF-CEM leukemia
COLO 205 colon = test system: COLO 205 colon
DU-145 prostate = test system: DU-145 prostate
EKVX NSCLC = test system: EKVX NSCLC
HCC-2998 colon = test system: HCC-2998 colon
HCT-116 colon = test system: HCT-116 colon
HCT-15 colon = test system: HCT-15 colon
HL-60(TB) leukemia = test system: HL-60(TB) leukemia
HOP-62 NSCLC = test system: HOP-62 NSCLC
HOP-92 NSCLC = test system: HOP-92 NSCLC
HS 578T breast = test system: HS 578T breast
HT29 colon = test system: HT29 colon
IGROV1 ovarian = test system: IGROV1 ovarian
K-562 leukemia = test system: K-562 leukemia
KM12 colon = test system: KM12 colon
LOX IMVI melanoma = test system: LOX IMVI melanoma
M14 melanoma = test system: M14 melanoma
MALME-3M melanoma = test system: MALME-3M melanoma
MCF7 breast = test system: MCF7 breast
MDA-MB-231 breast = test system: MDA-MB-231 breast
MDA-MB-435 = test system: MDA-MB-435
MDA-N = test system: MDA-N
MOLT-4 leukemia = test system: MOLT-4 leukemia
NCI-H226 lung = test system: NCI-H226 lung
NCI-H23 lung = test system: NCI-H23 lung
NCI-H460 lung = test system: NCI-H460 lung
NCI-H522 lung = test system: NCI-H522 lung
NCI/ADR-RES ovarian = test system: NCI/ADR-RES ovarian
OVCAR-3 ovarian = test system: OVCAR-3 ovarian
OVCAR-4 ovarian = test system: OVCAR-4 ovarian
OVCAR-5 ovarian = test system: OVCAR-5 ovarian
OVCAR-8 ovarian = test system: OVCAR-8 ovarian
PC-3 prostate = test system: PC-3 prostate
RPMI-8226 leukemia = test system: RPMI-8226 leukemia
RXF 393 renal = test system: RXF 393 renal
SF-268 CNS = test system: SF-268 CNS
SF-295 CNS = test system: SF-295 CNS
SK-MEL-28 melanoma = test system: SK-MEL-28 melanoma
SK-MEL-5 melanoma = test system: SK-MEL-5 melanoma
SK-OV-3 ovarian = test system: SK-OV-3 ovarian
SN12C renal = test system: SN12C renal
SNB-19 CNS = test system: SNB-19 CNS
SNB-75 CNS = test system: SNB-75 CNS
SR leukemia = test system: SR leukemia
SW-620 colon = test system: SW-620 colon
T-47D breast = test system: T-47D breast
TK-10 renal = test system: TK-10 renal
U251 CNS = test system: U251 CNS
UACC-62 melanoma = test system: UACC-62 melanoma
UO-31 renal = test system: UO-31 renal
SF-539 CNS = test system: SF-539 CNS
SK-MEL-2 melanoma = test system: SK-MEL-2 melanoma
UACC-257 melanoma = test system: UACC-257 melanoma
DLD-1 colon = test system: DLD-1 colon
DMS 114 small cell lung = test system: DMS 114 small cell lung
DMS 273 small cell lung = test system: DMS 273 small cell lung
HOP-18 NSCLC = test system: HOP-18 NSCLC
KM20L2 colon = test system: KM20L2 colon
LXFL 529 NSCLC = test system: LXFL 529 NSCLC
M19-MEL melanoma = test system: M19-MEL melanoma
SNB-78 CNS = test system: SNB-78 CNS

Measured: TGI

CCOC(=O)C1CCCC1S(=O)(=O)c1ccc(C)cc1 (stereo unspecified)
not listed: SF-539 CNS | SK-MEL-2 melanoma | UACC-257 melanoma | DLD-1 colon | DMS 114 small cell lung | DMS 273 small cell lung | HOP-18 NSCLC | KM20L2 colon | LXFL 529 NSCLC | M19-MEL melanoma | SNB-78 CNS
> 100 µM: all other assays above

O=C(Nc1ccc(Cl)cc1)c1cc(S(=O)(=O)NC2=NC(c3ccccc3)c3cc(Cl)ccc3N2)c(SSc2cc(Cl)c(C(=O)Nc3ccc(Cl)cc3)cc2S(=O)(=O)NC2=NC(c3ccccc3)c3cc(Cl)ccc3N2)cc1Cl (stereo unspecified)
> 61.6 µM: MOLT-4 leukemia
> 40.1 µM: CCRF-CEM leukemia
> 42.6 µM: HL-60(TB) leukemia
58.5 µM: SR leukemia
not listed: DLD-1 colon | DMS 114 small cell lung | DMS 273 small cell lung | HOP-18 NSCLC | KM20L2 colon | LXFL 529 NSCLC | M19-MEL melanoma | SNB-78 CNS
> 100 µM: all other assays above

CS(=O)(=O)OC1CCN(C2(c3cccc(O)c3)CCCCC2)CC1
49.4 µM: SR leukemia
49 µM: RPMI-8226 leukemia
89.9 µM: SF-539 CNS
60.5 µM: CCRF-CEM leukemia
94.1 µM: MOLT-4 leukemia
39.7 µM: HCC-2998 colon
51.8 µM: LOX IMVI melanoma
38.2 µM: HL-60(TB) leukemia
92.4 µM: 786-0 renal
not listed: DLD-1 colon | DMS 114 small cell lung | DMS 273 small cell lung | HOP-18 NSCLC | KM20L2 colon | LXFL 529 NSCLC | M19-MEL melanoma | SNB-78 CNS
> 100 µM: all other assays above

COc1ccc(-c2cc(-c3ccc(Nc4ccnc5cc(C(F)(F)F)ccc45)cc3)[nH]c(=O)c2C#N)cc1
62.2 µM: SNB-75 CNS
> 68.2 µM: TK-10 renal
> 80.4 µM: HT29 colon
> 82.9 µM: MDA-MB-231 breast
> 68.9 µM: SF-539 CNS
> 94.9 µM: BT-549 breast
> 53.5 µM: RXF 393 renal
98.5 µM: MDA-N
> 41.1 µM: HOP-62 NSCLC
> 70.9 µM: NCI-H226 lung | U251 CNS
> 88.6 µM: SF-268 CNS
> 55.1 µM: A498 renal
> 57.6 µM: SF-295 CNS
49.6 µM: HS 578T breast
56.7 µM: SNB-19 CNS
> 63.7 µM: COLO 205 colon
> 47.4 µM: SK-OV-3 ovarian
> 60.8 µM: NCI-H23 lung
not listed: UO-31 renal | DLD-1 colon | DMS 114 small cell lung | DMS 273 small cell lung | HOP-18 NSCLC | KM20L2 colon | LXFL 529 NSCLC | M19-MEL melanoma | SNB-78 CNS
> 100 µM: all other assays above

Cc1cc(C)c(N)c(C)c1N
not listed: BT-549 breast | CAKI-1 renal | DU-145 prostate | HS 578T breast | HT29 colon | MCF7 breast | MDA-MB-231 breast | MDA-MB-435 | MDA-N | NCI-H226 lung | NCI/ADR-RES ovarian | OVCAR-4 ovarian | PC-3 prostate | SNB-75 CNS | T-47D breast
> 100 µM: all other assays above

N=C(N)Cn1cnc2ccccc21
not listed: BT-549 breast | CAKI-1 renal | DU-145 prostate | HCT-116 colon | HOP-92 NSCLC | HS 578T breast | HT29 colon | MCF7 breast | MDA-MB-231 breast | MDA-MB-435 | MDA-N | NCI/ADR-RES ovarian | OVCAR-4 ovarian | PC-3 prostate | SR leukemia | T-47D breast | DLD-1 colon | DMS 273 small cell lung
> 100 µM: all other assays above

CC(C)c1ccc(O)c(O)c(=O)c1 (tested in a mixture with another compound)
8.13 µM: SK-MEL-5 melanoma
> 36.9 µM: NCI/ADR-RES ovarian
> 83 µM: HOP-92 NSCLC
> 54.9 µM: IGROV1 ovarian
27.2 µM: LOX IMVI melanoma
> 21.1 µM: SF-539 CNS
17.1 µM: COLO 205 colon
12.1 µM: UACC-62 melanoma
98.9 µM: BT-549 breast
2.03 µM: UACC-257 melanoma
> 23.4 µM: NCI-H226 lung
> 41.2 µM: UO-31 renal
4.02 µM: SR leukemia
9.79 µM: RPMI-8226 leukemia
> 61.5 µM: SF-268 CNS
23.8 µM: SK-MEL-28 melanoma
25.2 µM: A498 renal
3.02 µM: SK-MEL-2 melanoma
22.8 µM: SNB-75 CNS
> 42.9 µM: HCT-116 colon
33.7 µM: DU-145 prostate
5.44 µM: MALME-3M melanoma
15.6 µM: PC-3 prostate
4.04 µM: HCC-2998 colon
13 µM: ACHN renal
17.5 µM: NCI-H522 lung
12 µM: RXF 393 renal
5.53 µM: MOLT-4 leukemia
15.5 µM: M14 melanoma
0.899 µM: NCI-H460 lung
> 82.1 µM: KM12 colon
9.6 µM: TK-10 renal
2.39 µM: HL-60(TB) leukemia
26.7 µM: MDA-MB-231 breast
> 52.2 µM: CAKI-1 renal
> 68.6 µM: T-47D breast
> 26.3 µM: NCI-H23 lung
69.7 µM: HS 578T breast
47.7 µM: EKVX NSCLC
4.98 µM: U251 CNS
not listed: CCRF-CEM leukemia | DLD-1 colon | DMS 114 small cell lung | DMS 273 small cell lung | HOP-18 NSCLC | KM20L2 colon | LXFL 529 NSCLC | M19-MEL melanoma | SNB-78 CNS
> 100 µM: all other assays above
